This note sets out measurements from patent US11213522B2, “Autoimmune-induced glutamatergic receptor dysfunction methods and treatments” (SARAH HERZOG MEMORIAL HOSPITAL EZRAT NASHIM ASSOCIATION, priority 2013, dated 2022).

Molecules are shown by their SMILES.

In this test the test system is Rodent neuron cell cultures treated with anti-NMDAR antibodies. The experiment in a line: Example 3: NMDAR localization in neuron cultures treated with anti-NMDAR antibodies. The test is classed as cell-based. As to conditions: Glycine 100-500 uM; histological measurements. The procedure:
Rodent neuron cell cultures are treated with anti-NMDAR antibodies as described in Hughes E G et al., J Neurosci 2012 30(17):5866-75. […] The determination of receptors localization and other relevant measures is based on histological measurements.
Immunohistochemical methods will be applied to document (a) localization of NMDAR and NR1 and NR2 subunits; (b) loss of oligodendrocytes; (c) changes in astrocytes (S100beta) and microglia (cd11b), (d) expression of neurotrophic factors: brain derived neurotrophic factor (BDNF), nerve growth factor (NGF) and ciliary neurotrophic factor (CNTF); (e) markers of neurogenesis—doublecortin (17) and apoptosis—caspase3 (9). Quantification of histological measurements is based on images in several cortical subregions, striatum, […], hippocampus, and cerebellum.

Take `NCC(=O)O` [Glycine]: the “Effect on NMDAR intracellular localization” value is recorded as “reversing receptor intracellular localization”.
